Data from US20120100105A1, “AGENT AND METHOD FOR TREATING REFRACTORY CHRONIC HEPATITIS C” (MEIJI SEIKA PHARMA CO., LTD., priority 2009, published 2012).

Legend:
HCV = conditions: without ribavirin; cited from earlier work
genotype 1b HCV [1] = experiment: Antiviral effect of 22β-methoxyolean-12-ene-3β,24(4β)-diol and PEG-IFN in refractory chronic hepatitis C (LVR case); blood HCV load by TaqMan PCR; assay type: in vivo, human; conditions: for Ratio of negativity achieved in blood HCV after 12 weeks from administrations (age) / Ratio of negativity achieved in blood HCV after 12 weeks from administrations (sex): LVR case
Description: Subjects were 21 patients (9 men, 12 women) infected with genotype 1b HCV and having chronic hepatitis C. […] To these subject patients in a refractory chronic hepatitis C case, a fine granule containing 25 mg or 400 mg of […] was orally administered twice a day and 180 μg of PEG-IFN-α-2a (Pegasys: manufactured by Roche Holding AG and Chugai Pharmaceutical Co., Ltd.) was subcutaneously administered per week. […] The blood HCV load was measured using the TaqMan® PCR method, and the baseline of negativity was below 1.2 Log IU/mL.
The backgrounds of all the patients in the two administration groups are as follows. […] These exceeded the baseline, 5.00 Log IU/mL, of the high viral load, and all the patients were infected with genotype 1b.

genotype 1b HCV [2] = experiment: Antiviral effect of 22β-methoxyolean-12-ene-3β,24(4β)-diol and PEG-IFN in refractory chronic hepatitis C (NR case); blood HCV load by TaqMan PCR; assay type: in vivo, human; conditions: for Ratio of negativity achieved in blood HCV after 24 weeks from administrations: NR-case patients N=6; for Ratio of negativity achieved in blood HCV after 24 weeks from administrations (age) / Ratio of negativity achieved in blood HCV after 24 weeks from administrations (sex): NR case
Description: Subjects were the following patients (12 in total; 7 men, 5 women) who had been infected with genotype 1b HCV and had chronic hepatitis C and who were particularly considered to be highly refractory.
To these subject patients (NR case), a fine granule containing 25 mg or 400 mg of 22β-methoxyolean-12-ene-3β,24(4β)-diol was orally administered twice a day and 180 μg of PEG-IFN-α-2a (Pegasys: Roche Holding AG and Chugai Pharmaceutical Co., Ltd.) was subcutaneously administered per week. These administrations were continued for 24 weeks (hereinafter, the patients were referred to as a “50 mg/day administration group” or an “800 mg/day administration group”). The transitions of the blood HCV load and safety (clinical test value abnormality: blood hemoglobin value) before the administrations and up to 24 weeks were examined. The blood HCV load was measured using the TaqMan® PCR method, and the baseline of negativity was below 1.2 Log IU/mL.
The backgrounds of all the patients in the two administration groups are as follows. As for the sex, there were 7 men (58.3%) and 5 women […]. As for the age, the average age was 58.3, the youngest was 43 years old, and the oldest was 69 years old. With the baseline of 60 years old, there were 6 people who were under 60 years old (50.0%) and 6 people who were 60 years old or above (50.0%). The average blood HCV load of the patients before the administrations was 6.66 Log IU/mL with the minimum load of 5.30 Log IU/mL and the maximum load of 7.40 Log IU/mL. These exceeded the baseline, 5.00 Log IU/mL, of the high viral load, and all the patients were infected with genotype 1b.

[3] = 60 years old or above, 50 mg/day with PEG-IFN-α-2a
[4] = 60 years old or above, 800 mg/day with PEG-IFN-α-2a
[5] = 60 years old or above, total of both doses with PEG-IFN-α-2a
[6] = Men, 50 mg/day with PEG-IFN-α-2a
[7] = Men, 800 mg/day with PEG-IFN-α-2a
[8] = Men, total of both doses with PEG-IFN-α-2a
[9] = Women, 50 mg/day with PEG-IFN-α-2a
[10] = Women, 800 mg/day with PEG-IFN-α-2a
[11] = Women, total of both doses with PEG-IFN-α-2a
[12] = under 60 years old, 50 mg/day with PEG-IFN-α-2a
[13] = under 60 years old, 800 mg/day with PEG-IFN-α-2a
[14] = under 60 years old, total of both doses with PEG-IFN-α-2a

## CO[C@@H]1CC(C)(C)C[C@H]2C3=CC[C@@H]4[C@@]5(C)CC[C@H](O)[C@](C)(CO)[C@@H]5CC[C@@]4(C)[C@]3(C)CC[C@@]12C [22β-methoxyolean-12-ene-3β,24(4β)-diol]
HCV
  Anti-HCV activity in combination with an IFN: synergistic anti-HCV activity
Genotype 1b HCV [1]; 50 mg/day (25 mg orally twice a day) combined with PEG-IFN-α-2a 180 μg/week s.c., LVR-case patients N=11, negativity below 1.2 Log IU/mL
  Ratio of negativity achieved in blood HCV after 12 weeks from administrations: 63.6% (7/11)
Genotype 1b HCV [1]; 800 mg/day (400 mg orally twice a day) combined with PEG-IFN-α-2a 180 μg/week s.c., LVR-case patients N=10
  Ratio of negativity achieved in blood HCV after 12 weeks from administrations: 50.0% (5/10)
Genotype 1b HCV [1]; [3]
  Ratio of negativity achieved in blood HCV after 12 weeks from administrations (age): 75.0% (6/8)
Genotype 1b HCV [1]; [4]
  Ratio of negativity achieved in blood HCV after 12 weeks from administrations (age): 25.0% (1/4)
Genotype 1b HCV [1]; [5]
  Ratio of negativity achieved in blood HCV after 12 weeks from administrations (age): 58.3% (7/12)
Genotype 1b HCV [1]; [6]
  Ratio of negativity achieved in blood HCV after 12 weeks from administrations (sex): 60.0% (3/5)
Genotype 1b HCV [1]; [7]
  Ratio of negativity achieved in blood HCV after 12 weeks from administrations (sex): 50.0% (2/4)
Genotype 1b HCV [1]; [8]
  Ratio of negativity achieved in blood HCV after 12 weeks from administrations (sex): 55.6% (5/9)
Genotype 1b HCV [1]; [9]
  Ratio of negativity achieved in blood HCV after 12 weeks from administrations (sex): 66.7% (4/6)
Genotype 1b HCV [1]; [10]
  Ratio of negativity achieved in blood HCV after 12 weeks from administrations (sex): 50.0% (3/6)
Genotype 1b HCV [1]; [11]
  Ratio of negativity achieved in blood HCV after 12 weeks from administrations (sex): 58.3% (7/12)
Genotype 1b HCV [1]; patients negative by 12 weeks whose administrations (25 or 400 mg twice a day with PEG-IFN-α-2a 180 μg/week) were continued up to 48 weeks
  Blood HCV load continued to be negative for 48 weeks of the administration period: two out of three patients
Genotype 1b HCV [1]; the patients negative through 48 weeks of administration with PEG-IFN-α-2a, complete recovery was achieved
  Relapse after the non-treatment period of subsequent 24 weeks: no relapse occurred
Genotype 1b HCV [1]; [12]
  Ratio of negativity achieved in blood HCV after 12 weeks from administrations (age): 33.3% (1/3)
Genotype 1b HCV [1]; [13]
  Ratio of negativity achieved in blood HCV after 12 weeks from administrations (age): 66.7% (4/6)
Genotype 1b HCV [1]; [14]
  Ratio of negativity achieved in blood HCV after 12 weeks from administrations (age): 55.6% (5/9)
Genotype 1b HCV [2]; 50 mg/day (25 mg orally twice a day) combined with PEG-IFN-α-2a 180 μg/week s.c., negativity below 1.2 Log IU/mL
  Ratio of negativity achieved in blood HCV after 24 weeks from administrations: 50.0% (3/6)
Genotype 1b HCV [2]; 800 mg/day (400 mg orally twice a day) combined with PEG-IFN-α-2a 180 μg/week s.c.
  Ratio of negativity achieved in blood HCV after 24 weeks from administrations: 50.0% (3/6)
Genotype 1b HCV [2]; [3]
  Ratio of negativity achieved in blood HCV after 24 weeks from administrations (age): 50.0% (1/2)
Genotype 1b HCV [2]; [4]
  Ratio of negativity achieved in blood HCV after 24 weeks from administrations (age): 50.0% (2/4)
Genotype 1b HCV [2]; [5]
  Ratio of negativity achieved in blood HCV after 24 weeks from administrations (age): 50.0% (3/6)
Genotype 1b HCV [2]; [6]
  Ratio of negativity achieved in blood HCV after 24 weeks from administrations (sex): 50.0% (2/4)
Genotype 1b HCV [2]; [7]
  Ratio of negativity achieved in blood HCV after 24 weeks from administrations (sex): 33.3% (1/3)
Genotype 1b HCV [2]; [8]
  Ratio of negativity achieved in blood HCV after 24 weeks from administrations (sex): 42.9% (3/7)
Genotype 1b HCV [2]; [9]
  Ratio of negativity achieved in blood HCV after 24 weeks from administrations (sex): 50.0% (1/2)
Genotype 1b HCV [2]; [10]
  Ratio of negativity achieved in blood HCV after 24 weeks from administrations (sex): 66.7% (2/3)
Genotype 1b HCV [2]; [11]
  Ratio of negativity achieved in blood HCV after 24 weeks from administrations (sex): 60.0% (3/5)
Genotype 1b HCV [2]; [12]
  Ratio of negativity achieved in blood HCV after 24 weeks from administrations (age): 50.0% (2/4)
Genotype 1b HCV [2]; [13]
  Ratio of negativity achieved in blood HCV after 24 weeks from administrations (age): 50.0% (1/2)
Genotype 1b HCV [2]; [14]
  Ratio of negativity achieved in blood HCV after 24 weeks from administrations (age): 50.0% (3/6)
